This is an account of results in article PMC9611471 (Pharmaceutics, 2022).

Each structure is given as a SMILES string.

Series [1] deals with A549 cells. Put plainly: Colony formation assay. The series is classed as cell-based, human. Conditions: 5 and 10 μM. The protocol: A549 cells (1 × 10^3 cells/well) were seeded into six-well plates and then each compound was treated at 5 and 10 μM for 12 h. The medium was changed every two days, and the cells were cultured in a fresh medium for 10 days. The obtained colonies were fixed with 25% glutaraldehyde for 20 min and then stained with 0.1% crystal violet for 15 min.

Series [2] can be described thus: In vitro metabolic stability, mouse liver microsomes. It counts as in vitro ADME. Conditions: pooled liver microsomes, NADPH, 37 °C, 0 and 30 min. On the technique in general: Liver microsomes are vesicles of endoplasmic reticulum, rich in cytochrome P450 enzymes.
Series [3] deals with A549 cells. Put plainly: Annexin V-FITC apoptosis analysis. It counts as cell-based, human. Conditions: 24 h. Here is the method:
A549 cells (1 × 10^5 cells) were seeded in into a 12-well plate. […] After harvesting the cells, the binding buffer was added and then incubated with annexin-V-FITC and PI at room temperature for 15 min. The stained cells were analyzed with MACS Quant Analyzer 10 Flow Cytometer (Miltenyi Biotec, Bergisch Gladbach, Germany) within 1 h.

For series [4], the system named is A549 cells. Put plainly: SK1 and SK2 protein (Western blotting) and mRNA (qRT-PCR) levels. The series is classed as cell-based, human. To be noted: 5 and 10 μM, 24 h. Here is the method: (§1) Western blotting measured changes in apoptosis-related proteins (PARP, BAX, BCL-2, Caspase-3). A549 cells (1 × 10^6 cells per well in 6-well plates) were incubated for 24 h. Cells were treated with concentrations of the compounds and incubated for 24 h. Then, cells were dissolved on ice for two hours with a lysis buffer containing a mixture of protease and phosphatase inhibitors. The lysate was centrifuged at 12,000× g for 15 min at 4 °C, and the supernatant was collected. Protein concentrations were measured using a bicinchoninic acid protein assay kit. Total protein was separated by 8–10% sodium dodecyl sulfate–polyacrylamide gel electrophoresis (SDS-PAGE) and transferred onto polyvinylidene fluoride (PVDF) membranes. After being blocked with 5% skim milk, membranes were probed overnight at 4 °C with primary antibodies against SK1, SK2, PARP, BAX, Bcl-2, Caspase-3, and β-actin. Then, the membranes were incubated with subsequent secondary antibodies at room temperature. Then, the protein expressions were measured by Amersham Imager 680 (GE Healthcare, Leiden, WZ, The Netherlands).
RNAs were isolated using the Trizol/chloroform reagent (Invitrogen, Waltham, MA, USA). […] For quantitative analysis of various genes, qRT-PCR was performed using the Bio-Rad CFX384 Touch Real-time PCR detection system (Bio-Rad, Hercules, CA, USA) with SYBR Premix Ex Taq (Takara Bio, Shiga, Japan) for 40 cycles.
(A western blot detects proteins with antibodies after separation by electrophoresis.)

Series [5] has as its system A549 cells. The experiment in a line: Western blotting of apoptosis-related proteins. The series is classed as cell-based, human. To be noted: 5 and 10 μM, 24 h. Here is the method:
as §1

The nature of series [6]: In vitro metabolic stability, rat liver microsomes. It counts as in vitro ADME. Conditions: pooled liver microsomes, NADPH, 37 °C, 0 and 30 min.
For series [7], the system named is A549 cells. Put plainly: Cytotoxicity after SK1/SK2 siRNA transfection. It counts as cell-based, human. Conditions: A549 cells transfected with siSK1, siSK2; 24 h. The protocol: Control small interfering RNA (siControl) was obtained from Bioneer (Daejeon, Korea), while SK1 (sc-44114) and SK2 (sc-39225) siRNA (siSK1 and siSK2) were purchased from Santa Cruz Biotechnology (Dallas, TX, USA). Cells were transfected using Lipofectamine RNAiMAX Reagent (Invitrogen, Carlsbad, CA, USA) according to the manufacturer’s instructions. Transfection efficiency was monitored by Western blot. After 24 h of infection, cytotoxicity was measured using infected cells.

Another series deals with A549 and H1299 cells. Put plainly: Cell proliferation / viability assay (EZ-CYTOX).
The test system of series [8] is A549 cells. Put plainly: Levels of sphingosine, ceramide and S1P (ELISA). It counts as cell-based, human. To be noted: 5 and 10 μM. The protocol: After seeding 1 × 10^6 cells/well into a 6-well plate and incubating for 24 h, the synthetic compounds were treated by concentration. Then, cells were collected and freezing and thawing were repeated three to five times, and centrifuged supernatant was used for testing. The levels of sphingosine, ceramide, and S1P were measured according to the proposed manual using each ELISA kit (Mybiosource, Inc., San Diego, CA, USA).
Background: An ELISA detects its analyte on a solid surface through an enzyme-linked reagent.

The subject of series [9] is A549 cells. Put plainly: Mitochondrial membrane potential measurement (JC-10). The series is classed as cell-based, human. Conditions: 10 μM, 24 h. Here is the method:
To access the mechanism of cell death, Mitochondrial Membrane Potential (MMP) was performed using JC-10 cationic dye. […] Cells were collected, and 20 μM JC-10 dye prepared in HBSS solution (0.14 M NaCl, 0.005 M KCl, 0.001 M CaCl2, 0.005 M MgSO4-7H2O, 0.0004 M MgSO4-6H2O, 0.0003 M Na2HPO4-2H2O, 0.0004 M KH2PO4, 0.006 M D-glucose, 0.004 M NaHCO3, 0.002 M HEPES, and 0.02% Pluronic® F-127) was added to the cell for 30 min and mixed. The samples were protected from light and measured by using the MACS Quant Analyzer 10 Flow cytometer.

The next series addresses T1, SK2 (Homo sapiens, UniProt Q9NRA0).
T1 sequence (Q9NRA0 1-654): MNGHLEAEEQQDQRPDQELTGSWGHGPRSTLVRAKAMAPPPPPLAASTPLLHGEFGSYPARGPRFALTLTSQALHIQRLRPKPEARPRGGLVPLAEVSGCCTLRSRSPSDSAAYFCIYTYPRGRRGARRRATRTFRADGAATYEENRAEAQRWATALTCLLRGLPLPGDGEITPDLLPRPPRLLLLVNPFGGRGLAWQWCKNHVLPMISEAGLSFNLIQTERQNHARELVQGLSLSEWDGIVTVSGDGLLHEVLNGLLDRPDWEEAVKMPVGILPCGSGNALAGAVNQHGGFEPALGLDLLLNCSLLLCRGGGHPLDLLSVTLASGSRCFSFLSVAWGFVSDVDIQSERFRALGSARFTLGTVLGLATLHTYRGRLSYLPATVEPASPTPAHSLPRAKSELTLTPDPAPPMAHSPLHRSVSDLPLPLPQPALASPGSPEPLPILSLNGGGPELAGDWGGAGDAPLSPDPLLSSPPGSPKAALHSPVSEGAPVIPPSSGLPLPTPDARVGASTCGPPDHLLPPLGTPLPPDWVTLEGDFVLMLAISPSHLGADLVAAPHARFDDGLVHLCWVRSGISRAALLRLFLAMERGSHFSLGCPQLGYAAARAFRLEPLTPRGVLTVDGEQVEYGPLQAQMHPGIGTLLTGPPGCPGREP
The experiment in a line: SK2 activity assay (Adapta screening system). Conditions: read-out: SK2 inhibitory efficacy.

Series [10] can be described thus: In vitro metabolic stability, human liver microsomes. Conditions: pooled liver microsomes 0.5 mg/mL, NADPH, 37 °C, 0 and 30 min.
A short description of series [11]: In vitro metabolic stability, dog liver microsomes. Conditions: pooled liver microsomes, NADPH, 37 °C, 0 and 30 min. It counts as in vitro ADME.
Series [12] has as its target T2, SK1 (Homo sapiens, UniProt Q9NYA1). The experiment in a line: SK1 activity assay (Adapta screening system).
For series [13], the target named is T2, SK1. Set-up: purchased Thermo Fisher Scientific; method as in PMID 32526899. Conditions: cited from earlier work.
Series [14] concerns the target T2, SK1. More on the design: purchased Thermo Fisher Scientific; method as in PMID 32526899. To be noted: read-out: SK1 inhibitory effect (IC50); cited from earlier work.
For series [15] the following is noted: previous studies; cited from earlier work.

T2 sequence (Q9NYA1 whole entry): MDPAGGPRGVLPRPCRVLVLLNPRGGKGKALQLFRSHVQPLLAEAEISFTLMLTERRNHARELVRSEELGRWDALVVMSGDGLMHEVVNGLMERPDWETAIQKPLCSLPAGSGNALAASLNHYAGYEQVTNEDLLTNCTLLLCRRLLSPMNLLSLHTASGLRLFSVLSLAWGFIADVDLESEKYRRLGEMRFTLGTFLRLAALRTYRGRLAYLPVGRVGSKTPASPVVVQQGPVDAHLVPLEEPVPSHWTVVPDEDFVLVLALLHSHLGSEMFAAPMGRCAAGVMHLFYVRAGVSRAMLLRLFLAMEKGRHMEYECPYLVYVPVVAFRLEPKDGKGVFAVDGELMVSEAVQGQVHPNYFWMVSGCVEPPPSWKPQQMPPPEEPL

As usually defined, the IC50 is the midpoint of a concentration-inhibition curve. Turning to `Cc1cc(CN(Cc2cc(C)cc(CS(=O)(=O)c3ccccc3)c2)c2ccc(CCN3CCC(O)CC3)cc2)cc(CS(=O)(=O)c2ccccc2)c1` [Compound 2, 1-(4-(Bis(3-methyl-5-((phenylsulfonyl)methyl)benzyl)amino)phenethyl)piperidin-4-ol], the colony formation entry in the series on A549 cells [1] is “reduce colony formation in a concentration-dependent manner”. For the same compound, in series [2], the “MS MLM” value is listed as 24.6. Further, the “apoptotic effect (annexin-V)” value with A549 cells [3] (5 μM) was “significant effect”; in the series on A549 cells [3] (10 μM), “significantly higher apoptotic effect compared to PF-543”. For the same compound, the “expression of proteins and mRNAs of SK1 and SK2” value in the series on A549 cells [4] is “did not affect”. Also, in the series with A549 cells [5], the “levels of PARP, Caspase-3 and cleaved PARP” value is “levels of PARP and Caspase-3 were decreased and cleavage of PARP was increased”. The “MS RLM” value in series [6] was 29.1. In addition, the “dependence of cytotoxic efficacy on SK1/SK2 (siRNA knockdown)” value in the series with A549 cells [7] is “more dependent on SK1, although SK2 is also partially involved”. Moreover, in the series on A549 and H1299 cells (20 and 40 μM, A549 and H1299 cells), the “cytotoxic effects compared with FTY720” value was “cytotoxic effects similar to those of FTY720”. Besides, in the series on A549 and H1299 cells (Homo sapiens, 24 h, read-out: IC50 (cytotoxic effect)), the IC50 amounted to 7.07 µM. Also, the S1P levels result with A549 cells [8] is “reduced”. For the same compound, the ceramide levels result in the series on A549 cells [8] was “increased”. Besides, the sphingosine levels entry in the series with A549 cells [8] is given as “sphingosine expression at a level similar to that of PF-543”. In addition, the “change in mitochondrial membrane potential (MMP), JC-10” value in the series with A549 cells [9] is listed as “significantly increased compared to that after treatment with PF-543”. The figures for the inhibition at 10 µM at SK2 and on SK1 [12] (read-out: SK1 inhibitory efficacy) were 44% and 39%, respectively. In [10], the “MS HLM” value is 18.1. Further, the “MS DLM” value in series [11] was found to be 18.6. Besides, the “selectivity for SK1” value on SK1 [12] (SK1 vs SK2, compared to PF-543) is on record as “lower selectivity for SK1 compared to PF-543”.
Consider `Cc1cc(CN(Cc2cc(C)cc(CS(=O)(=O)c3ccccc3)c2)c2ccc(CCO)cc2)cc(CS(=O)(=O)c2ccccc2)c1` [Compound 7], for which, at SK1 [13], the “binding affinity for SK1 (Ka)” value was 3.9e+07 M⁻¹. For the same compound, the half-maximal inhibitory concentration (IC50) at SK1 [14] was 0.14 µM.
On to `Cc1cc(CS(=O)(=O)c2ccccc2)cc(OCc2ccc(CN3CCC[C@@H]3CO)cc2)c1` [PF-543, reference compound], for which the “MS MLM” value in series [2] turned out to be 9.4. Further, the “MS RLM” value in series [6] is on record as 7.8. Moreover, the “metabolic stability (MS)” value in series [15] is listed as “poor”. In addition, in [11], the “MS DLM” value stood at 7.3.
